In patent US9802918B2, “Pyridineamine compounds useful as Pim kinase inhibitors” (Incyte Corporation, priority 2015, dated 2017):

Key:
Type in all cases: biochemical
Pim-2 = Pim-2 (Homo sapiens (Human), UniProt Q9P1W9); assay: Pim-2 kinase assay; conditions: 1 mM ATP; read-out: Pim2 IC50
Summary of the method: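 Pim-2 (1 nM) with fluorescein-CREBtide ([…]) and 1 mM ATP in Tris pH 7.5, MgCl2, DTT buffer, 2 h at 25 °C. Stopped with EDTA plus Tb-anti-CREB pSer133 antibody; phosphorylation read by TR-FRET after 30 min.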

Pim-3 = Pim-3 (Homo sapiens (Human), UniProt Q86V86); assay: Pim-3 kinase assay; conditions: 1 mM ATP; read-out: Pim3 IC50
Summary of the method: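 Human Pim-3 at 1.25 pM phosphorylated […] biotin-BAD peptide with 1 mM ATP for 1 h at 25° C, in pH 7.5 Tris buffer with 5 mM MgCl2 and 5 mM DTT. Reactions were stopped with EDTA buffer containing phospho-Bad (Ser112) antibody and AlphaScreen donor/acceptor beads. Plates were read after 1 h dark incubation at room temperature.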

Pim-1 = Pim-1 (Homo sapiens (Human), UniProt P11309); assay: Pim-1 kinase assay; conditions: 1 mM ATP; read-out: Pim1 IC50
Experimental: Supplementation of the STOP buffer with beads and stopping the reactions were done under reduced light. Prior to the stopping reactions STOP buffer with beads was preincubated for 1 h in the dark at room temperature. After stopping the reactions, plates were incubated for 1 h in the dark at room temperature before reading on a PHERAstar FS plate reader (BMG Labtech) under reduced light.

Chain of Pim-1 (P11309 whole entry): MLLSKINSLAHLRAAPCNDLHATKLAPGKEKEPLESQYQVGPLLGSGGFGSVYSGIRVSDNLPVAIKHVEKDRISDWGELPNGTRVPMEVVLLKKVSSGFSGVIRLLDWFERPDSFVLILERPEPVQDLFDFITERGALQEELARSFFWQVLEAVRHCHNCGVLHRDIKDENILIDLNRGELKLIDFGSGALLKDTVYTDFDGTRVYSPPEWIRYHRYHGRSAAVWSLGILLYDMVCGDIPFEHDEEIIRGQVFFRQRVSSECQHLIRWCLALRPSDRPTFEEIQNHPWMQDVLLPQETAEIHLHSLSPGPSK
Chain of Pim-2 (Q9P1W9 whole entry): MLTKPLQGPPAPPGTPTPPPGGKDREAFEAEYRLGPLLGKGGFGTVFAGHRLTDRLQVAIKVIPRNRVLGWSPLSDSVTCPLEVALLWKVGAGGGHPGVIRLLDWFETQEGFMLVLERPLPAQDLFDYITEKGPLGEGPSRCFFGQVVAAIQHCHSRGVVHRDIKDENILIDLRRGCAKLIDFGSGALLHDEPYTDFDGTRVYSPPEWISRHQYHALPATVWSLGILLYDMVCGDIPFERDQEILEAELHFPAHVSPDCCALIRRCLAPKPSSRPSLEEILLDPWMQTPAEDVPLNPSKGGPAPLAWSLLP

SMILES	IC50 (Pim-2) [nM]	IC50 (Pim-3) [nM]	IC50 (Pim-1) [nM]
C[C@H]1CN(c2ccncc2NCc2ccc3ccc(-c4ccn5ccnc5c4)cc3n2)C[C@@H](N)[C@@H]1O [Example 93, (3R,4R,5S)-3-Amino-1-(3-{[(7-imidazo[1,2-a]pyridin-7-ylquinolin-2-yl)methyl]amino}pyridin-4-yl)-5-methylpiperidin-4-ol]	100 to 1000	≤ 10	< 10
C[C@H]1CN(c2ccncc2NCc2ccc3occ(-c4c(F)cc(CO)cc4F)c3n2)C[C@@H](N)[C@@H]1O [Example 96, (3R,4R,5S)-3-amino-1-(3-(((3-(2,6-difluoro-4-(hydroxymethyl)phenyl)furo[3,2-b]pyridin-5-yl)methyl)amino)pyridin-4-yl)-5-methylpiperidin-4-ol]	100 to 1000	≤ 10	< 10
C[C@H]1CN(c2ccncc2NCc2ccc3occ(-c4ccc(CO)cc4F)c3n2)C[C@@H](N)[C@@H]1O [Example 97, (3R,4R,5S)-3-amino-1-(3-(((3-(2-fluoro-4-(hydroxymethyl)phenyl)furo[3,2-b]pyridin-5-yl)methyl)amino)pyridin-4-yl)-5-methylpiperidin-4-ol]	100 to 1000	≤ 10	10 to 50
CC(C)c1coc2ccc(CNc3cnccc3N3C[C@H](C)C[C@H](N)C3)nc12 [Example 98, 4-[(3S,5R)-3-Amino-5-methylpiperidin-1-yl]-N-[(3-isopropylfuro[3,2-b]pyridin-5-yl)methyl]pyridin-3-amine]	100 to 1000	≤ 10	< 10
C[C@@H]1C[C@H](N)CN(c2ccncc2NCc2ccc3occ(-c4c(F)cc(CO)cc4F)c3n2)C1 [Example 99, (4-(5-((4-((3S,5R)-3-amino-5-methylpiperidin-1-yl)pyridin-3-ylamino)methyl)furo[3,2-b]pyridin-3-yl)-3,5-difluorophenyl)methanol]	≤ 100	≤ 10	< 10
C[C@@H]1C[C@H](N)CN(c2ccncc2NCc2ccc3occ(-c4ccc(CO)cc4F)c3n2)C1 [Example 100, (4-(5-((4-((3S,5R)-3-amino-5-methylpiperidin-1-yl)pyridin-3-ylamino)methyl)furo[3,2-b]pyridin-3-yl)-3-fluorophenyl)methanol]	≤ 100	≤ 10	< 10
C[C@@H]1C[C@H](N)CN(c2ccncc2NCc2ccc3occ(C4CC4)c3n2)C1 [Example 102, 4-[(3S,5R)-3-Amino-5-methylpiperidin-1-yl]-N-[(3-cyclopropylfuro[3,2-b]pyridin-5-yl)methyl]pyridin-3-amine]	100 to 1000	≤ 10	< 10
C[C@@H]1C[C@H](N)CN(c2ccncc2NCc2ccc(F)c(-c3c(F)cc(OCC(C)(C)O)cc3F)n2)C1 [Example 103, 1-(4-{6-[({4-[(3S,5R)-3-Amino-5-methylpiperidin-1-yl]pyridin-3-yl}amino)methyl]-3-fluoropyridin-2-yl}-3,5-difluorophenoxy)-2-methylpropan-2-ol]	≤ 100	≤ 10	< 10
C[C@H]1CN(c2ccncc2NCc2ccc(F)c(-c3c(F)cc(OCC(C)(C)O)cc3F)n2)C[C@@H](N)[C@@H]1O [Example 104, (3R,4R,5S)-3-Amino-1-{3-[({6-[2,6-difluoro-4-(2-hydroxy-2-methylpropoxy)phenyl]-5-fluoropyridin-2-yl}methyl)amino]pyridin-4-yl}-5-methylpiperidin-4-ol]	100 to 1000	≤ 10	< 10
C[C@@H]1C[C@H](N)CN(c2ccncc2NCc2ccc(F)c(-c3c(F)cc(C(C)(C)O)cc3F)n2)C1 [Example 105, 2-(4-{6-[({4-[(3S,5R)-3-Amino-5-methylpiperidin-1-yl]pyridin-3-yl}amino)methyl]-3-fluoropyridin-2-yl}-3,5-difluorophenyl)propan-2-ol]	≤ 100	≤ 10	< 10
C[C@H]1CN(c2ccncc2NCc2ccc(F)c(-c3c(F)cc(C(C)(C)O)cc3F)n2)C[C@@H](N)[C@@H]1O [Example 106, (3R,4R,5S)-3-Amino-1-{3-[({6-[2,6-difluoro-4-(1-hydroxy-1-methylethyl)phenyl]-5-fluoropyridin-2-yl}methyl)amino]pyridin-4-yl}-5-methylpiperidin-4-ol]	≤ 100	≤ 10	< 10
C[C@H]1CN(c2ccncc2NCc2ccc3ccc(-c4ccn(C)c(=O)c4F)cc3n2)C[C@@H](N)[C@@H]1O [Example 107, 4-{2-[({4-[(3R,4R,5S)-3-Amino-4-hydroxy-5-methylpiperidin-1-yl]pyridin-3-yl}amino)methyl]quinolin-7-yl}-3-fluoro-1-methylpyridin-2(1H)-one]	≤ 100	≤ 10	< 10
C[C@@H]1C[C@H](N)CN(c2ccncc2NCc2nc(-c3c(F)cccc3F)c(F)cc2N)C1 [Example 108, 2-[({4-[(3S,5R)-3-Amino-5-methylpiperidin-1-yl]pyridin-3-yl}amino)methyl]-6-(2,6-difluorophenyl)-5-fluoropyridin-3-amine]	≤ 100	≤ 10	< 10
Nc1cc(F)c(-c2c(F)cccc2F)nc1CNc1cnccc1N1C[C@@H](N)C[C@@H](C(F)(F)F)C1 [Example 109, 2-[({4-[(3S,5R)-3-Amino-5-(trifluoromethyl)piperidin-1-yl]pyridin-3-yl}amino)methyl]-6-(2,6-difluorophenyl)-5-fluoropyridin-3-amine]	≤ 100	≤ 10	< 10
C[C@@H]1C[C@H](N)CN(c2ccnc(F)c2NCc2ccc(F)c(-c3c(F)cccc3F)n2)C1 [Example 110, 4-[(3S,5R)-3-Amino-5-methylpiperidin-1-yl]-N-{[6-(2,6-difluorophenyl)-5-fluoropyridin-2-yl]methyl}-2-fluoropyridin-3-amine]	≤ 100	≤ 10	< 10
CC(Nc1cnccc1N1C[C@H](C)C[C@H](N)C1)c1ccc(F)c(-c2c(F)cccc2F)n1 (stereo partly drawn) [Example 111, 4-[(3S,5R)-3-Amino-5-methylpiperidin-1-yl]-N-{1-[6-(2,6-difluorophenyl)-5-fluoropyridin-2-yl]ethyl}pyridin-3-amine]	≤ 100	≤ 10	< 10
